Laboratory results from article PMC9081821 (Steroids, 2022).

Experiments:
[1] = target: T1, human GR (glucocorticoid receptor) (Homo sapiens, UniProt P04150); format: cell-based; details: for IC50 (M) ± SEM: 20 nM [3H]-DEX, 3 h
T1 sequence (P04150 1-777): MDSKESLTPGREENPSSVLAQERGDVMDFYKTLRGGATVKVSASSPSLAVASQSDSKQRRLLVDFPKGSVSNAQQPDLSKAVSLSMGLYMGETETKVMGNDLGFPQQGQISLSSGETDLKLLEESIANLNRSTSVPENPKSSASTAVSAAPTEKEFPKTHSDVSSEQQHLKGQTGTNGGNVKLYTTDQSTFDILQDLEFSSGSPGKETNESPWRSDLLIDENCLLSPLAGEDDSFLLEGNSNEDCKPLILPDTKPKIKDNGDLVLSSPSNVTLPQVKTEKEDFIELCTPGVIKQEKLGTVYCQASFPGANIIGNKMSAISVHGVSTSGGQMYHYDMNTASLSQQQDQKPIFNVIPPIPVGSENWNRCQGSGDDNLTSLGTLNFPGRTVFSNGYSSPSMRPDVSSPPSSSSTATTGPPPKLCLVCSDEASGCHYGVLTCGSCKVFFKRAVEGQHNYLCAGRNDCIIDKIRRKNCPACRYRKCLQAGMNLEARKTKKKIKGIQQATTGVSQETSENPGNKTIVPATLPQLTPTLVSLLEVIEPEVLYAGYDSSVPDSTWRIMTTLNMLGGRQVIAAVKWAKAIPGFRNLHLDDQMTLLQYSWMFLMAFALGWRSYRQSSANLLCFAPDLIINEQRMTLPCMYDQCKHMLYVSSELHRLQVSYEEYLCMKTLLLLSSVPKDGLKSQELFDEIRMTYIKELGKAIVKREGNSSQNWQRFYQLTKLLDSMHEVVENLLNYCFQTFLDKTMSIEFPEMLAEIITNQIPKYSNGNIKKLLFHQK

[2] = target: T1, human GR (glucocorticoid receptor); assay: GRE-luciferase reporter transactivation in transfected COS-1 cells; format: cell-based

Row | SMILES | IC50 (M) ± SEM [1] | EC50 [2] [nM] | IC50 [1] [nM]
1 | C#C[C@]1(O)CC[C@H]2[C@@H]3CCC4=CC(=O)CC[C@@H]4[C@H]3CC[C@@]21CC [levonorgestrel] | 1.35 ± 9.1 × 10^-7 M |  | 
2 | C#C[C@]1(O)CC[C@H]2[C@@H]3CCC4=CC(=O)CC[C@@H]4[C@H]3C(=C)C[C@@]21CC [etonogestrel] | 1.15 ± 5.2 × 10^-8 M | 31.9 | 
3 | C=C1C[C@H]2[C@@H]3CCC4=CC(=O)CC[C@@H]4[C@H]3CC[C@]2(C)[C@@]1(OC(C)=O)C(C)=O [nestorone] |  | 18.5 | 57.3
4 | CC(=O)O[C@]1(C(C)=O)CC[C@H]2[C@@H]3C[C@H](C)C4=CC(=O)CC[C@]4(C)[C@H]3CC[C@@]21C [medroxyprogesterone acetate] |  | 41.7 | 5.58
